According to patent publication US20210100777A1, “HEAT SHOCK PROTEIN (HSP) INHIBITION AND MONITORING EFFECTIVENESS THEREOF” (H. LEE MOFFITT CANCER CENTER AND RESEARCH INSTITUTE, INC., priority 2013, published 2021):
“Also recorded” adds a separate entry of the source.

Experiments:
[1] = tested on: vemurafenib resistant melanoma cell lines; assay: Apoptosis, Annexin-V staining and flow cytometry; format: cell-based; settings: 72 or 144 hours
Procedure: Flow cytometry. […] In some studies, RPMI7951 cells were treated with 300 nM XL888 in the presence or absence of 3 μM vemurafenib and harvested after 24, 48 and 72 hours.

[2] = tested on: vemurafenib resistant melanoma cell lines grown as 3D collagen implanted spheroids; assay: 3D spheroid assay; format: cell-based; settings: 1 μM, 144 hours
Procedure: 3D spheroid assays. Melanoma spheroids were prepared using the liquid overlay method (Smalley et al. Mol Cancer Ther. 5: 1136-1144 (2006)). Spheroids were treated for 144 hours with either vehicle or 1 μM XL888 before being washed (3 times in media) and treated with calcein-AM and ethidium bromide (Molecular Probes, Eugene, Oreg.) for 1 hour at 37° C., to according to the manufacturer's instructions. Pictures of the invading spheroids were taken using a Nikon-300 inverted fluorescence microscope.

[3] = tested on: M229R xenografts; assay: Xenograft experiment; format: in vivo, BALB SCID mice; settings: 100 mg/kg, PO, 3× week, 15 days
Procedure: Xenograft experiments. BALB SCID mice (The Jackson Laboratory, Bar Harbor, Me.) were subcutaneously injected with 2.5×10^6 cells per mouse (resuspended in 111 μL L-15 media, 10 mM HEPES, 37.5 μL Matrigel). Tumors were grown to approximately 100 mm^3 prior to dosing. Mice were treated with either 100 mg XL888/kg (n=5) or an equivalent volume of vehicle (10 mM HCl), 3 times per week by oral gavage. Mouse weights and tumor volumes (L×W2/2) were measured 3 times per week. Upon completion of the experiment, vehicle and drug treated tumor biopsies were processed for LC-MRM analysis (as above).

[4] = tested on: FOXO3a in M229R and 1205LuR cells; assay: Immunofluorescent staining; format: cell-based; settings: 48 hours; XL888 300 nM, GDC-0941 3 μM
Procedure: Immunofluorescent staining. M229R and 1205LuR cells were seeded at 50% confluency onto glass coverslips in a 12 well plate and allowed to adhere overnight. […] Fixed cells were separately stained by incubating overnight with rabbit anti-BIM or anti-FOXO3a antibodies followed by staining with secondary anti-rabbit AF488. Cells were then mounted onto slides with ProLong Gold Antifade containing DAPI (Invitrogen) and imaged with a Leica confocal microscope equipped with a 40x oil immersion lens.

[5] = tested on: chymotrypsin like proteasome activity in M229R and 1205LuR cells; assay: Proteasome-Glo Chymotrypsin-Like Cell Based Assay; settings: 300 nM, 48 hours
Procedure: Measurement of proteasome activity. M229R and 1205LuR cells were harvested and plated at 7,500 cells per well in a white-walled 96 well plate. […] Proteasome activity was assessed using the Proteasome-Glo Chymotrypsin-Like Cell Based Assay (Promega; Madison, Wis.) and was measured in relative luminescence units (RLU).

CC[C@@H](C)Nc1cc(C(=O)N[C@@H]2C[C@H]3CC[C@@H](C2)N3c2ccc(C(=O)C3CC3)cn2)c(C)cc1C(N)=O [XL888, 5-((R)-sec-butylamino)-N1-((1R,3s,5S)-8-(5-(cyclopropanecarbonyl)pyridin-2-yl)-8-azabicyclo[3.2.1]octan-3-yl)-2-methylterephthalamide]
apoptosis ([1]; 300 nM, every cell line tested): > 66%
apoptosis versus MEK, PI3K and MEK+PI3K inhibitors ([1]; resistance through COT, PDGFRβ overexpression and two unknown mechanisms): significantly higher levels of apoptosis than each of the other drug combinations
cell death in 3D spheroids [2]: effective at inducing cell death
regression of established M229R xenografts [3]: significantly induce the regression; also recorded: significant levels of tumor regression
nuclear accumulation of FOXO3a [4]: highly efficient at increasing nuclear accumulation of FOXO3a
inhibiting chymotrypsin like proteasome activity [5]: less effective than the MEK+PI3K inhibitor combination
